Measured values from patent US20230119479A1, “A HISTONE DEACETYLASE INHIBITOR HAVING A NITROGEN-CONTAINING AROMATIC HETEROCYCLYL GROUP” (SHIONOGI & CO., LTD., priority 2019, published 2023).
pIC50: −log10 of the molar value.

How the values were obtained:
[1] = molecular target: T1, HDAC2 Human recombinant C-terminal FLAG-tag (Homo sapiens, UniProt Q92769); assay: Measurement of HDAC2 enzyme inhibitory activity (HTRF); format: biochemical; settings: recombinant HDAC2, H3K9ac peptide, 3 hours room temperature; read-out: HDAC2 IC50
T1 construct: FLAG (C); purchased BPS Bioscience 50052
T1 sequence (Q92769 whole entry): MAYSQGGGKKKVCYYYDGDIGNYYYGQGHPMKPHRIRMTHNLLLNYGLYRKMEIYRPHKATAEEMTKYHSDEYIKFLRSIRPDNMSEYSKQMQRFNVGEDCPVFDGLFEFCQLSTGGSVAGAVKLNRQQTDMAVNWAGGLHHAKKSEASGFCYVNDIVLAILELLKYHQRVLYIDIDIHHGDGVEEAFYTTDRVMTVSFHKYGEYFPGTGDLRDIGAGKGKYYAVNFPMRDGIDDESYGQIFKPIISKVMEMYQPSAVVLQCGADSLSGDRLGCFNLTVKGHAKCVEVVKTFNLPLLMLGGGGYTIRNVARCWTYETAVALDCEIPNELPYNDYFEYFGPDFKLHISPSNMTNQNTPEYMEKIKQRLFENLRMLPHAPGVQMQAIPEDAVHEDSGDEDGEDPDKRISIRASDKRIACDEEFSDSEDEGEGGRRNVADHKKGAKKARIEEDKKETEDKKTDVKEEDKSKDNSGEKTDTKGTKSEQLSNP
How it was run: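 Compounds were tested at 8 points in 3-fold dilutions from 99 μM final (n=2) against FLAG-tagged HDAC2 with biotinylated H3K9ac (1-21) peptide (0.6 μM as added). The reaction ran 3 h at room temperature in Tris pH 8.0 buffer, then was stopped with SAHA. Deacetylated product was detected by HTRF (Eu-anti-H3K9me0 antibody, streptavidin-XL665) as the 665/615-620 nm ratio.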

[2] = molecular target: T2, human ether-a-go-go related gene (hERG) channel (Homo sapiens, UniProt Q12809); assay: hERG test (whole cell patch clamp); format: cell-based; settings: CHO cells expressing hERG; concentration not given
T2 construct: expressed in transfected cells; host or cells: CHO cells
T2 sequence (Q12809 whole entry): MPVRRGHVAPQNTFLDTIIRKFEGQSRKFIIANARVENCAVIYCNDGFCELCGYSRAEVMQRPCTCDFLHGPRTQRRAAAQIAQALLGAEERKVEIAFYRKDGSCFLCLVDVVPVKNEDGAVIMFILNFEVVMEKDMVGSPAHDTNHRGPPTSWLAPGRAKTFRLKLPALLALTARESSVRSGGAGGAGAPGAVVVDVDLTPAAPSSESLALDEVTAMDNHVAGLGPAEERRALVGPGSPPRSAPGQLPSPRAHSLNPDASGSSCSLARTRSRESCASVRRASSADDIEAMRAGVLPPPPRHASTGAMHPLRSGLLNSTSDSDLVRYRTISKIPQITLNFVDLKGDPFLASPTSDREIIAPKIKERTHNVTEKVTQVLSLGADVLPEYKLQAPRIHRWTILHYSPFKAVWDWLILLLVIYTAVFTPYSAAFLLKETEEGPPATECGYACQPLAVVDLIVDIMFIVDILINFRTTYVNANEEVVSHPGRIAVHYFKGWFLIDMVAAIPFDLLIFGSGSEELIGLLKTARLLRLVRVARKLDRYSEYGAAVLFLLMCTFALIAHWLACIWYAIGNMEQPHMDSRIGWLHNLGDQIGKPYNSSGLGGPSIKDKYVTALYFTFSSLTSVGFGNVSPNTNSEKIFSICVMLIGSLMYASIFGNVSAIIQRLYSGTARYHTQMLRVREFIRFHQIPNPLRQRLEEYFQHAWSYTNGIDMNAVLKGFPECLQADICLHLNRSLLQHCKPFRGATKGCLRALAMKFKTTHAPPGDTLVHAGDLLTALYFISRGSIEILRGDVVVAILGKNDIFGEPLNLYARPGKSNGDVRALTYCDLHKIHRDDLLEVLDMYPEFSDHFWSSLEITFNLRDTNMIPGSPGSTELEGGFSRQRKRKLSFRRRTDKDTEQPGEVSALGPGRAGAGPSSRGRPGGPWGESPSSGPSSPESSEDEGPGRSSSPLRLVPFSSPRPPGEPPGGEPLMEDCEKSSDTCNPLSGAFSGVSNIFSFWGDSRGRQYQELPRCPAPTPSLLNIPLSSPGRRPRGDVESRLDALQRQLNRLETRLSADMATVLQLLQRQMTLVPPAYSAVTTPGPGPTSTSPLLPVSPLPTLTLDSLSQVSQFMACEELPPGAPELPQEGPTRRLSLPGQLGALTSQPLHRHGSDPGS
Text: For the purpose of assessing risk of an electrocardiogram QT interval prolongation of the compound of the present invention, effects of the compound of the present invention on delayed rectifier K^+ current (IKr), which plays an important role in the ventricular repolarization process, was studied using CHO cells expressing human ether-a-go-go related gene (hERG) channel.
After a cell was retained at a membrane potential of −80 mV by whole cell patch clamp method using an automated patch clamp system (QPatch; Sophion Bioscience A/S) and gave a leak potential of −50 mV, IKr induced by depolarization pulse stimulation at +20 mV for 2 seconds, and further, repolarization pulse stimulation at −50 mV for 2 seconds, was recorded. A vehicle, which was the 0.1% dimethyle sulfoxide solution in extracellular solution (NaCl: 145 mmol/L, KCl: 4 mmol/L, CaCl2: 2 mmol/L, MgCl2: 1 mmol/L, glucose:10 mmol/L, HEPES (4-(2-hydroxyethyl)-1-piperazineethanesulfonic acid): 10 mmol/L, pH7.4), or the compound of the present invention had been dissolved at an objective concentration in the extracellular solution was applied to the cell at room temperature for 7 minutes or more. From the recording IKr, an absolute value of the tail peak current was measured based on the current value at the resting membrane potential using analysis software (QPatch assay software; Sophion Bioscience A/S). Further, the % inhibition of tail peak current for the compound of the present invention relative to the tail peak current after application of the vehicle was calculated to assess influence of the compound of the present invention on IKr. The dilution concentration and dilution solvent were changed as necessary.

[3] = BA test (oral absorption); format: in vivo; settings: plasma; mice or rats; oral vs intravenous administration
Experimental: Materials and methods for experiments to evaluate oral absorption (1) Experimental animals: mice or rats were used. (2) Rearing condition: mice or rats were allowed free access to solid feed and sterilized tap water. (3) Setting of dosage and grouping: Oral administration and intravenous administration were performed with the predetermined dosage. Grouping was set as below. (Dosage was changed per compound)
Oral administration 2 to 60 μmol/kg or 1 to 30 mg/kg (n=2 to 3)
Intravenous administration 1 to 30 μmol/kg or 0.5 to 10 mg/kg (n=2 to 3)
(4) Preparation of administration solutions: Oral administration was performed as suspension or solution. Intravenous administration was performed after solubilization. (5) Routes of administration: Oral administration was performed mandatory into the stomach by oral sonde. Intravenous administration was performed from caudal vein by syringes with needle. (6) Evaluation items: Blood was collected serially and concentration of a compound of the present invention in plasma was measured by LC/MS/MS. (7) Statistical analysis: About transition of concentration of a compound of the present invention in plasma, the area under the plasma concentration versus time curve (AUC) was calculated by non-linear least-squares method program, and bioavailability (BA) of a compound of the present invention was calculated from dosages and AUCs of the oral administration group and the intravenous administration group. The dilution concentration or the dilution solvent were changed as necessary.

## CCOc1cnc(C(=O)Nc2cc(-c3ccc(F)nc3)ccc2N)cn1 [Compound I-118]
[1]
  pIC50: 6.85
[2]
  % inhibition of tail peak current (IKr): 23.3%
[3]
  bioavailability: 22.7%

## C[C@H](F)COc1cnc(C(=O)Nc2cc(-c3ccc(F)nc3)ccc2N)cn1 (racemic) [Compound I-125]
[1]
  pIC50: 6.74
[2]
  % inhibition of tail peak current (IKr): 18.6%
[3]
  bioavailability: 32.1%

## Cn1cc(-c2cnc(C(=O)Nc3nc(-n4cccc4)ccc3N)cn2)cn1 [Compound I-023]
[1]
  pIC50: 6.74
[3]
  bioavailability: 43.7%

## N#Cc1ccc(C(=O)Nc2cc(-c3ccc(F)nc3)ccc2N)nc1 [Compound I-092]
[1]
  pIC50: 6.60
[2]
  % inhibition of tail peak current (IKr): 30%
[3]
  bioavailability: 22.4%

## Cn1cc(-c2cnc(C(=O)Nc3cc(-c4ccc(F)nc4)ccc3N)cn2)cn1 [Compound I-080]
[1]
  pIC50: 7.32
[2]
  % inhibition of tail peak current (IKr): 9.5%
[3]
  bioavailability: 38.4%

## Cn1cc(-c2ccc(N)c(NC(=O)c3cnc(C4CC4)cn3)c2)cn1 [Compound I-130]
[1]
  pIC50: 6.85
[2]
  % inhibition of tail peak current (IKr): 3.3%
[3]
  bioavailability: 37.2%

## Cn1cc(-c2cnc(C(=O)Nc3nc(-c4cccs4)ccc3N)cn2)cn1 [Compound I-017]
[1]
  pIC50: 6.66
[3]
  bioavailability: 19.6%
